Measurements from ChEMBL document CHEMBL1201862, “PubChem BioAssay data set” (2004).
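96-well plates; 48 h exposure; 5 concentrations. Endpoints by linear interpolation between flanking doses. Not reached: highest tested concentration assigned. The concentration for 50% growth inhibition is given as GI50.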 The source made the active and inactive calls. Rule as the data show it: active = GI50 up to about 1.1 µM and inactive = higher.

Assays:
Assay in all cases: NCI-60 cell line screen, 48 h
LXFL 529 = tested on: LXFL 529
KM-20L2 = tested on: KM-20L2
SNB-78 = tested on: SNB-78
M19-MEL = tested on: M19-MEL
DMS-273 = tested on: DMS-273
XF498 = tested on: XF498
HOP-18 = tested on: HOP-18
BT-549 = tested on: BT-549

COc1ccc2ccc([Se]c3ccc4ccc(OC)cc4c3)cc2c1
GI50 (LXFL 529): > 100 µM (inactive) | GI50 (KM-20L2): > 100 µM (inactive) | GI50 (SNB-78): 53.6 µM (inactive) | GI50 (M19-MEL): > 100 µM (inactive) | GI50 (DMS-273): > 100 µM (inactive) | GI50 (XF498): 43 µM (inactive) | GI50 (HOP-18): 28.9 µM (inactive)

CC(C)(C)C(=O)O[C@H]1C=C[C@@H](O)[C@@H]2[C@H]1[C@@H]1C=C[C@H]2C1
GI50 (BT-549): 3.87 µM (inactive)

c1ccc(Nc2nn3c(CCCCCCCCc4nnc5sc(Nc6ccccc6)nn45)nnc3s2)cc1
GI50 (BT-549): 31.5 µM (inactive)

CCCCCc1cc(OC(=O)c2c(O)cc(OC)cc2CCCCC)cc(O)c1C(=O)O
GI50 (LXFL 529): 16.5 µM (inactive) | GI50 (KM-20L2): 18.5 µM (inactive) | GI50 (SNB-78): 30.9 µM (inactive) | GI50 (M19-MEL): 18.4 µM (inactive) | GI50 (DMS-273): 16.1 µM (inactive) | GI50 (XF498): 15.3 µM (inactive)

C=C1C(=O)O[C@@H]2/C=C(\C)CC/C=C(\C)CC[C@@]12O
GI50 (BT-549): 1.99 µM (inactive)

O=C(O)c1cccc(OCCO)c1
GI50 (BT-549): > 100 µM (inactive)

c1cc(C[S+]2CCCC2)oc1C[S+]1CCCC1
GI50 (BT-549): > 100 µM (inactive)

COC1(OC)CCN(Cc2ccccc2)C1=O
GI50 (BT-549): 17.2 µM (inactive)

O=C1Cc2c(-c3ccccc3)cc(-c3ccc(Cl)cc3)nc2-c2ccccc2N1
GI50 (BT-549): 17.1 µM (inactive)

COc1ccc2c(c1)c1c(n2CCN2CCCCC2)-c2cccc(OC)c2CC1
GI50 (BT-549): 13.9 µM (inactive)

COC1CC(OS(=O)(=O)c2ccc(C)cc2)C(OS(=O)(=O)c2ccc(C)cc2)C(COS(=O)(=O)c2ccc(C)cc2)O1 (stereo unspecified)
GI50 (LXFL 529): 5.77 µM (inactive) | GI50 (KM-20L2): 12.9 µM (inactive) | GI50 (SNB-78): 5.46 µM (inactive) | GI50 (M19-MEL): 7.38 µM (inactive) | GI50 (DMS-273): 5.32 µM (inactive) | GI50 (HOP-18): 2.24 µM (inactive)

COC(=O)c1cc(OCc2cc(OCc3ccc(Br)cc3)cc(OCc3ccc(Br)cc3)c2)cc(OCc2cc(OCc3ccc(Br)cc3)cc(OCc3ccc(Br)cc3)c2)c1
GI50 (BT-549): > 100 µM (inactive)

CC(=O)Nc1ccc2oc(=O)c3ccccc3c2c1
GI50 (BT-549): > 100 µM (inactive)

C/C(=N\N(C)C)C(CN(C)C)C(c1ccccc1)c1c(O)c2ccccc2oc1=O (stereo unspecified)
GI50 (LXFL 529): > 100 µM (inactive) | GI50 (KM-20L2): > 100 µM (inactive) | GI50 (SNB-78): > 100 µM (inactive) | GI50 (DMS-273): > 100 µM (inactive) | GI50 (XF498): > 100 µM (inactive)

COC(=O)Nc1nc2cc(Oc3ccc4nc(NC(=O)OC)[nH]c4c3)ccc2[nH]1
GI50 (BT-549): 7.01 µM (inactive)

COc1ccccc1N/C(SCc1ccccc1)=C(/C(Cl)=C(Cl)Cl)[N+](=O)[O-]
GI50 (BT-549): 15.1 µM (inactive)

C[Si](C)(C)C1(Sc2ccccc2)SCCCS1
GI50 (LXFL 529): 34.4 µM (inactive) | GI50 (SNB-78): 51.8 µM (inactive) | GI50 (M19-MEL): 34 µM (inactive) | GI50 (DMS-273): 35.2 µM (inactive) | GI50 (XF498): 28.4 µM (inactive)

Cn1c(=O)oc2cc(C(O)CN3CCN(Cc4ccc5c(c4)OCO5)CC3)ccc21 (stereo unspecified)
GI50 (BT-549): > 100 µM (inactive)

C=C(C)C(=O)OC1C[C@H](COC(C)=O)C2CC=C(C)C2C2OC(=O)C(=C)[C@H]12 (stereo partly specified)
GI50 (BT-549): 4.13 µM (inactive)

c1ccc2[nH]c3nc4ccccc4c-3cc2c1
GI50 (BT-549): 0.512 µM (active)

COc1cc2c(c3c1C=CCO3)C(=O)c1ccccc1C2=O
GI50 (LXFL 529): 31.2 µM (inactive) | GI50 (KM-20L2): 59.4 µM (inactive) | GI50 (SNB-78): > 100 µM (inactive) | GI50 (M19-MEL): 76.6 µM (inactive) | GI50 (DMS-273): 49.1 µM (inactive) | GI50 (HOP-18): 83.8 µM (inactive)

COc1ccc(-n2sc3ncc(-c4ccccc4)cc3c2=O)cc1
GI50 (BT-549): 94 µM (inactive)

CN(C)c1ccc(C(Cc2ccccc2)C2NC(=S)NC2=O)cc1 (stereo unspecified)
GI50 (BT-549): > 100 µM (inactive)

O=C1Sc2ccc(Br)cc2C(=O)Sc2ccccc21
GI50 (BT-549): 12.5 µM (inactive)

[N-]=[N+]=CC(=O)CCC(N)C(=O)O (stereo unspecified)
GI50 (BT-549): 34.6 µM (inactive) | GI50 (KM-20L2): 0.226 µM (active) | GI50 (SNB-78): 4.25 µM (inactive) | GI50 (M19-MEL): 1.59 µM (inactive) | GI50 (DMS-273): 1.09 µM (active) | GI50 (XF498): 22 µM (inactive) | GI50 (HOP-18): 43.3 µM (inactive)

CCN(CC)CCCC(C)Nc1ccnc2cc(Cl)ccc12 (stereo unspecified) [CHLOROQUINE PHOSPHATE]
GI50 (LXFL 529): 57.3 µM (inactive) | GI50 (KM-20L2): 14.6 µM (inactive) | GI50 (SNB-78): 29.9 µM (inactive) | GI50 (DMS-273): 28.1 µM (inactive) | GI50 (XF498): 17.9 µM (inactive)

COc1cc2c(oc(=O)c3cc4cc([Si](C)(C)C)oc4c(OC)c32)c2cccc(O)c12
GI50 (LXFL 529): > 100 µM (inactive) | GI50 (KM-20L2): > 100 µM (inactive) | GI50 (SNB-78): > 100 µM (inactive) | GI50 (M19-MEL): > 100 µM (inactive) | GI50 (DMS-273): > 100 µM (inactive) | GI50 (XF498): > 100 µM (inactive) | GI50 (HOP-18): > 100 µM (inactive)

COc1ccccc1/C=C/c1c(N)ncnc1Nc1cccc(Cl)c1
GI50 (BT-549): 19.7 µM (inactive)

O=C(/C=C/c1ccccc1)CCN1CCOCC1
GI50 (BT-549): 12.6 µM (inactive) | GI50 (LXFL 529): 2.78 µM (inactive) | GI50 (KM-20L2): 15.9 µM (inactive) | GI50 (SNB-78): 19 µM (inactive) | GI50 (M19-MEL): 14.6 µM (inactive) | GI50 (DMS-273): 16.9 µM (inactive) | GI50 (XF498): 14.7 µM (inactive) | GI50 (HOP-18): 17.7 µM (inactive)

Oc1nc2c(c(-c3ccccc3Cl)n1)COC/C2=C\c1ccccc1Cl
GI50 (BT-549): > 100 µM (inactive)

C/C=C(/C)C(=O)O[C@@H]1CCN2CC[C@H](COC(=O)/C(=C/C)CO)C12 (stereo partly specified)
GI50 (BT-549): > 100 µM (inactive)

CC(=O)O[C@@H]1CC2[C@@H](CCC3Cc4nc5c(nc4C[C@@]32C)CC2CC[C@@H]3C(CC[C@@]4(C)C3CC[C@@H]4C(C)CCCC(C)C)[C@@]2(C)C5)C2C[C@@H]3OC4(CCC(C)CO4)C(C)[C@@H]3[C@]21C (stereo partly specified)
GI50 (BT-549): > 100 µM (inactive)

C(/C=N/N=C1NCCCCN1)=N\N=C1NCCCCN1
GI50 (BT-549): > 100 µM (inactive)

CC(=O)NC(CS/N=N/c1[nH]cnc1C(N)=O)C(=O)O (stereo unspecified)
GI50 (BT-549): 53 µM (inactive)
